Laboratory results from patent EP0976707A1, “CYCLOALKYL BENZYL ETHER COMPOUNDS” (Nissan Chemical Industries, Ltd., priority 1997, dated 1998).

Assays:
Assay type in all cases: in vivo
[1] = test system: Monochoria vaginalis; assay: Herbicidal effect test under submerged conditions, inhibition ratio (Test Example 6); settings: Pontederia vaginalis, 504 h, read-out: inhibition ratio (%), C (Monochoria vaginalis); for pest or weed control at 2 g/ha: dosage 2 g/ha, live weight of aerial part, three weeks after the treatment
From the text: (§1) [Test Example 6] Herbicidal effect test under submerged conditions
(§2) In a 1/5,000-are Wagner pot was filled alluvial soil, which was mixed with water introduced therein to establish submerged conditions at a water depth of 4 cm. After seeds of Monochoria vaginalis and Scirpus juncoides were sowed mixedly in the pot, 2.5 leaf stage rice seedlings were transplanted at a depth of 2 cm. On the next day of transplantation of the rice, the compound of the present invention prepared according to one of Composition Examples was applied. Three weeks after the treatment, the live weights of aerial parts of each kind of the weeds and rice were measured and inhibition ratios (%) were obtained according to Test Example 4. In the tables, (E) indicates expected values obtained by the equation of Colby and (F) indicates found values. Left side values and right side values in the column of application rate for each active ingredient indicate corresponding dosages of compounds in the column of compound name.
(§3) Synergistic herbicidal effect of herbicide mixtures will be explained as follows. That is, individual active compounds in many cases may be deficient in their herbicidal activity. In such a case, if the herbicidal activity of two active compounds in combination is higher than the simple sum of the activities of the compounds (expected activity), then this is called synergistic action. The expected activity from the stable combination of two herbicides, can be calculated as follows. (cf. Colby, S. R., Calculation of Synergistic and Antagonistic Reactions of Combination of Herbicides, Weed, vol. 15, pages 20-22 (1967)) E = α + β - ( α · β / 100) [formula] α : Inhibition ratio when herbicide A is applied in a rate of a kg/ha β : Inhibition ratio when herbicide B is applied in a rate of b kg/ha E : Inhibition ratio expected when herbicide A is applied in a rate of a kg/ha and herbicide B is applied in a rate of b kg/ha.

[2] = test system: Scirpus juncoides; assay: as above; settings: Schoenoplectiella juncoides, 504 h, read-out: inhibition ratio (%), B (Scirpus juncoides); for pest or weed control at 2 g/ha: dosage 2 g/ha, live weight of aerial part, three weeks after the treatment
From the text: as §1, §2, §3

[3] = test system: transplanted rice; assay: as above; settings: dosage 4 g/ha; live weight of aerial part, three weeks after the treatment
From the text: Herbicidal effect test under submerged conditions
In a 1/5,000-are Wagner pot was filled alluvial soil, which was mixed with water introduced therein to establish submerged conditions at a water depth of 4 cm. After seeds of Monochoria vaginalis and Scirpus juncoides were sowed mixedly in the pot, 2.5 leaf stage rice seedlings were transplanted at a depth of 2 cm. On the next day of transplantation of the rice, the compound of the present invention prepared according to one of Composition Examples was applied. […] In the tables, (E) indicates expected values obtained by the equation of Colby and (F) indicates found values.
The expected activity from the stable combination of two herbicides, can be calculated as follows.

[4] = test system: Monochoria vaginalis; assay: Herbicidal effect test under submerged conditions (Test Example 5); design: key: 0 indicating no influence; 5 indicating complete withering; settings: dosage 500 g/ha; three weeks after the treatment; rating 0-5
From the text: (§4) [Test Example 5] Herbicidal effect test under submerged conditions
(§5) In a 1/10,000-are Wagner pot was filled alluvial soil, which was mixed with water introduced therein to establish submerged conditions at a water depth of 4 cm. Respective seeds of Monochoria vaginalis, Rotala indica and Scirpus juncoides were sowed mixedly in the pot and then treated with the compound of the present invention prepared according to one of Composition Examples. Three weeks after the treatment, the herbicidal effect on the various weeds was examined.

[5] = test system: Rotala indica; assay: as above; design: key: 0 indicating no influence; 5 indicating complete withering; settings: dosage 500 g/ha; three weeks after the treatment; rating 0-5
From the text: as §4, §5

[6] = test system: Scirpus juncoides; assay: as above; design: key: 0 indicating no influence; 5 indicating complete withering; settings: dosage 500 g/ha; three weeks after the treatment; rating 0-5
From the text: as §4, §5

Compound: COCCOc1ccccc1S(=O)(=O)NC(=O)N=c1nc(OC)[nH]c(OC)n1 [R-8, cinosulfuron]
- pest or weed control at 4 g/ha [1]: 69%
- pest or weed control at 4 g/ha [2]: 70%
- inhibition ratio (%), a (transplanted rice) [3]: 0%

Compound: CCOc1ccccc1OS(=O)(=O)NC(=O)Nc1nc(OC)cc(OC)n1 [R-7, ethoxysulfuron]
- pest or weed control at 2 g/ha [1]: 63%
- pest or weed control at 2 g/ha [2]: 72%

Compound: Cc1ccc(NC(=O)NC(C)(C)c2ccccc2)cc1 [R-1, daimuron, reference compound]
- herbicidal effect, C (Monochoria vaginalis) [4]: 0
- herbicidal effect, D (Rotala indica) [5]: 1
- herbicidal effect, B (Scirpus juncoides) [6]: 5

Compound: COc1cc(OC)nc(NC(=O)NS(=O)(=O)c2c(-c3nnn(C)n3)cnn2C)n1 [R-5, azimsulfuron]
- pest or weed control at 2 g/ha [1]: 75%
- pest or weed control at 2 g/ha [2]: 61%

Compound: COC(=O)c1c(Cl)nn(C)c1S(=O)(=O)NC(=O)Nc1nc(OC)cc(OC)n1 [R-3, halosulfuron methyl]
- pest or weed control at 4 g/ha [1]: 71%
- pest or weed control at 4 g/ha [2]: 66%
- inhibition ratio (%), a (transplanted rice) [3]: 0%
